Data on eight compounds can be found in patent publication US10760065B2, “Tuning microbial populations with programmable nucleases” (priority 2013, dated 2020).

≈ marks a conversion by molar mass, not a printed value.

One test deals with EMG2 Wild-Type. Description: microbe, parasite or virus in culture. Format: cell-based, E. coli. The note with it: strain EMG2 Wild-Type, LB broth; for MIC: Escherichia coli, read-out: Minimum Inhibitory Concentration (MIC). As to the method: (§1) MICs were determined by broth microdilution using LB broth according to the CLSI guidelines (Clinical and Laboratory Standards Institute. Methods for Dilution Antimicrobial Susceptibility Tests for Bacteria That Grow Aerobically; Approved Standard—Seventh Edition. 64 (2006)).

In another test the test system is EMG2 gyrAD87G. Description: MIC determination by broth microdilution. Format: cell-based, E. coli. The settings on record: strain EMG2 gyrAD87G, LB broth; for MIC: Escherichia coli, read-out: Minimum Inhibitory Concentration (MIC). As to the method: as §1
(In general: Dilution methods test growth across graded concentrations, often in twofold steps.)

In another test the test system is EMG2 pNDM-1. Description: MIC determination by broth microdilution. In kind it is cell-based, E. coli. The settings on record: strain EMG2 pNDM-1, LB broth; for MIC: Escherichia coli, read-out: Minimum Inhibitory Concentration (MIC). As to the method: as §1
The test system of a further test is EMG2 pSHV-18. The test is described as follows: MIC determination by broth microdilution. In kind it is cell-based, E. coli. The settings on record: strain EMG2 pSHV-18, LB broth; for MIC: Escherichia coli, read-out: Minimum Inhibitory Concentration (MIC). On the procedure: as §1
A further test concerns EHEC strain. Description: Antibiotic susceptibility of the EHEC strain. Format: cell-based, E. coli.
For the next test, the system named is EHEC. The test is described as follows: Galleria mellonella infection model, survival. Format: in vivo. The settings on record: ΦRGNeae MOI ~30; chloramphenicol or carbenicillin 32 mg/kg; Log-rank p<0.05. On the procedure:
Galleria mellonella larvae were injected with either PBS (uninfected) or approximately 4×10^5 colony forming units (CFU) of EHEC. […] Survival curves represent an aggregate of four independent experiments, each with 20 worms per treatment group (n=80). […] G. mellonella larvae (n=40) were injected with PBS or approximately 3×10^5 colony forming units (CFU) of EHEC. Larvae were subsequently treated with PBS, ΦRGNeae at MOI ˜30, chloramphenicol, or carbenicillin. The antibiotics were both applied at a concentration of 32 mg/kg, corresponding to the CLSI resistance breakpoints for Enterobacteriaceae (32 μg/mL).
Larvae of the model organism Galleria mellonella (Desbois, A. P. & Coote, P. J. Adv. Appl. Microbiol. 78, 25-53 (2012)) were purchased from Vanderhorst Wholesale, Inc. (St. Marys, Ohio, USA) and received in the final larval instar for survival assays. Larvae were removed from food source, allowed to acclimate for at least 24 h at room temperature in the dark, and used within 4 days of receipt. […] Larvae were incubated at 37° C. and survival was monitored at 12 hour intervals for 72 hours, with death indicated by lack of movement and unresponsiveness to touch (Desbois, A. P. & Coote, P. J. Adv. Appl. Microbiol. 78, 25-53 (2012)). Kaplan-Meier survival curves were generated on the data pooled from four independent experiments and analyzed with the log-rank test using GraphPad Prism.

Consider `CO/N=C(\C(=O)N[C@@H]1C(=O)N2C(C(=O)O)=C(COC(C)=O)CS[C@H]12)c1csc(N)n1` [CTX, cefotaxime], for which the MIC was ≤ 0.0625 mg/L in the test on EMG2 Wild-Type, ≤ 0.0625 mg/L in the test with EMG2 gyrAD87G, > 64 mg/L in the test with EMG2 pNDM-1 and 0.25 mg/L (≈ 0.549 µM) with EMG2 pSHV-18.

On to `C[C@@H](O)[C@H]1C(=O)N2C(C(=O)O)=C(SCCN=CN)C[C@H]12` [IPM, imipenem], for which the MIC with EMG2 Wild-Type worked out at 0.25 mg/L (≈ 0.835 µM); with EMG2 pNDM-1, 32 mg/L (≈ 107 µM).

Regarding `O=C(N[C@H](CO)[C@H](O)c1ccc([N+](=O)[O-])cc1)C(Cl)Cl` [chloramphenicol], the “susceptibility of EHEC strain” value with EHEC strain is on record as “resistant”.

Take `CC1COc2c(N3CCN(C)CC3)c(F)cc3c(=O)c(C(=O)O)cn1c23` (stereo not shown) [OFX, ofloxacin]: the MIC was determined as 0.125 mg/L (≈ 0.346 µM) with EMG2 Wild-Type and 0.5 mg/L (≈ 1.38 µM) in the test with EMG2 gyrAD87G.

As to `CC1(C)S[C@@H]2[C@H](NC(=O)[C@H](N)c3ccccc3)C(=O)N2[C@H]1C(=O)O` [AMP, ampicillin], the MIC was 2 mg/L (≈ 5.72 µM) with EMG2 Wild-Type, 4 mg/L (≈ 11.4 µM) in the test with EMG2 gyrAD87G, > 64 mg/L with EMG2 pNDM-1 and 64 mg/L (≈ 183 µM) in the test with EMG2 pSHV-18.

As to `CC1(C)S[C@@H]2[C@H](NC(=O)C(C(=O)O)c3ccccc3)C(=O)N2[C@H]1C(=O)O` (stereo partly shown) [carbenicillin], in the test on EHEC, the “survival of EHEC-infected larvae, comparison with antibiotics” value is given as “superior to ΦRGNeae treatment”. Further, in the test on EHEC strain, the “susceptibility of EHEC strain” value was “susceptible”.

Consider gentamicin, for which the “Minimum Inhibitory Concentration (MIC)” value is 4 mg/L with EMG2 Wild-Type, 4 mg/L in the test with EMG2 gyrAD87G, >64 mg/L in the test on EMG2 pNDM-1 and >64 mg/L in the test on EMG2 pSHV-18.

On to `CC(C)(O/N=C(\C(=O)N[C@@H]1C(=O)N2C(C(=O)[O-])=C(C[n+]3ccccc3)CS[C@H]12)c1csc(N)n1)C(=O)O` [CAZ, ceftazidime], for which the MIC in the test on EMG2 Wild-Type was 0.25 mg/L (≈ 0.457 µM); in the test with EMG2 pNDM-1, > 64 mg/L; in the test with EMG2 pSHV-18, 1 mg/L (≈ 1.83 µM).
